The text below walks through data of article PMC11411520 (ACS Omega, 2024).

Entries after “also recorded” stand apart in the source; their conditions may differ. No end group written: not given here. *: point of attachment. Biotin = O=C1N[C@H]2[C@H](CS[C@H]2CCCCC(=O)*)N1

The subject of the assay is insulin. In words: electrochemical impedance spectroscopy. It counts as binding. The note with it: two experimental cases and one scrambled sequence; different insulin concentrations; PBS.

As for “EACVESGGGENLYFQK(Biotin) [scrambled sequence]”, the “raw phase change (Zphz) across different frequencies” value was “The largest change across different frequencies is observed in the scrambled sequence negative control compared to the other two experimental cases; also recorded: The largest change across different frequencies was observed in (C)”.
